# How the values were obtained:
# human NCX1 = biological target: T1, human NCX1 (Homo sapiens, UniProt P32418); test: Inhibition of Ca2+ efflux out of cells (NCX1 forward mode), FLIPR calcium assay; format: cell-based; conditions: CHO cells stably expressing human NCX1; Ca2+ efflux after Ionomycin; read-out: NCX1fw IC50 (inhibition of NCX1 in forward mode)
# T1 construct: expressed in transfected cells
# Description: The sodium/calcium exchanger NCX1 can transport calcium ions and sodium ions through the cell membrane. The transport is an exchange of Ca^2+ and Na^+ in two directions depending on membrane potential and ion gradients. At the first direction, named “forward mode” or “calcium export mode”, Ca^2+ is transported out of the cell and Na^+ is transported into the cell. At the other direction, named “reverse mode” or “calcium import mode”, the transport directions are vice versa. The effect of the compounds of the invention on NCX1 was determined in CHO cells stably expressing human NCX1 (gene symbol SLC8A1; cf. WO 2009/115238). The assay is based on the monitoring of intracellular Ca^2+ concentrations using a calcium-sensitive fluorescence dye which is detected by means of a FLIPR device (Fluorimetric Imaging Plate Reader, Molecular Devices).
# Assay Technology—Forward Mode
# The assay is based on the monitoring of intracellular Ca^2+ concentrations using the PBX Calcium Assay Kit from BD (Becton, Dickinson and Company) with calcium indicator dye 51-9000177BKa (BD, 640177). CHO cells expressing NCX1 were loaded with the dye, and after a preincubation period with the test compound, lonomycin (Calbiochem, 407950) was added. lonomycin is an ionophor for Ca^2+ ions mediating an increase of intracellular Ca^2+ ions. Consequently, intracellular Ca^2+ ions are exchanged against extracellular Na^+ ions (Ca^2+ efflux, forward mode). The decrease of intracellular Ca^2+ ions was detected by measuring the fluorescence of the calcium indicator dye at a wavelength of 520 nm by a FLIPR device.
# Briefly, similarly as for the reverse mode, for the forward mode transport assay 18000 cells per well were seeded into a 96 well microplate (Corning COSTAR 3904) and incubated overnight in culture medium (cf. above). A total volume of 100 μl medium per well was used. For the preparation of the FLIPR assay, the culture medium was removed from the plates and 100 μl of assay buffer (133.8 mM NaCl (Sigma, S5886); 4.7 mM KCl (Sigma, P3911); 1.25 mM MgCl2 (Merck, 1.05833.0250); 3.5 mM CaCl2 (Merck, 1.02083.0250); 5 mM glucose (Sigma, G7021); 10 mM Hepes (Sigma, H4034); pH 7.4)) were added to each well in a washing step. Assay buffer was removed, and 100 μl of a solution of the test compound in assay buffer in different concentrations were added into the wells. Further, 100 μl of dye solution (0.09% (v/v) calcium indicator dye, 9.1% (v/v) signal enhancer (from PBX Calcium Assay Kit); in assay buffer) were added into each well. The plates were incubated in the dark at room temperature for 60 min. Meanwhile a 10 μM solution of lonomycin in assay buffer (additionally containing 0.05% fetal calf serum (cf. above); 4° C.) was prepared and stored in the wells of a 96 well microplate (96 well microplate, polypropylene, U-shape (Greiner Bio-One, 650201)). The fluorescence monitoring was performed at 60 measuring points with measurement intervals of 2 sec. After the fifth measuring point, 50 μl of the lonomycin solution were added to each well of the assay plate to give a final lonomycin concentration of 2 μM. For the determination of the IC50 values the minimal fluorescence value was subtracted from the maximal fluorescence value for the fifteenth to fifty-fifth measuring points. The calculation of the IC50 values via the percentage inhibitions of Ca^2+ efflux out of cells (forward mode) effected by the test compound was performed in Biost@t Speed 2.0. “NCX1fw IC50” in Table 2 means the IC50 value (in μM (micromol/liter)) for inhibition of NCX1 in forward mode.
# Sprague-Dawley rats = test: In vivo method for determining the effect on heart contractility (left ventricular dp/dtmax); design: species or system rat; conditions: anesthetized male Sprague-Dawley rats, intravenous, vs solvent control
# Method: B) In Vivo Method for Determining the Effect on Heart Contractility
# Adult male Sprague-Dawley rats (Harlan Winkelmann, Borchen, Germany) weighing 340 to 370 g were anesthetized with pentobarbital (100 mg/kg i.p.) and ventilated with a mixture of oxygen (40%) and room air (60%) at a tidal volume of 1 ml/100 g at 60 breaths/min. Body temperature was maintained at 36.5±0.3° C. with a heating lamp and was monitored with a rectal thermo sensor. Systemic blood pressure was measured in the left carotid artery using a pressure transducer (Combitrans; B. Braun Melsungen AG, Melsungen, Germany) connected to a DC-bridge-amplifier (PLUGSYS/ADC Type 663; Harvard Apparatus GmbH, March-Hugstetten, Germany). The electrocardiogram was measured as lead II via subcutaneously placed electrodes connected to a Heart-Rate-Module (PLUGSYS/HRM Type 669; Harvard Apparatus GmbH, March-Hugstetten, Germany). A micro-tip catheter (2 French, SPR-320; Millar Instruments, Houston, Tex., USA) was placed via the right carotid artery into the left ventricle, and the left ventricular pressure (LVP) and the enddiastolic pressure (EDP) were continuously measured. Registration of the hemodynamic data was performed via an analog digital converter by a personal computer using Notocord software (HEM version 3.5). Left ventricular contractility (dp/dtmax) and relaxation (dp/dtmin) were calculated from the LVP signal. For intravenous administration of the test compounds, the left jugular vein was prepared and a PP-50 catheter was inserted. Test compounds were administered either by intravenous bolus injection or by intravenous infusion by means of an infusion pump (Unita; B. Braun Melsungen AG, Melsungen, Germany). Test compounds were dissolved in a mixture of Glycofurol (75%) and Cremophor (25%), and the solution was further diluted with distilled water (1:4). In a typical experiment, several dosages of the test compound were administered subsequently at increasing doses. Statistical significance of the data obtained with drug vs control experiments, in which solvent was administered, was evaluated with the 2-sided ANOVA test (program Everstat). Increases in left ventricular contractility (percent increase) by example compounds are given in Table 3 in comparison to control experiments in which solvent was administered.
SMILES,IC50 (human NCX1) [nM],Contractility increase (left ventricular contractility) (Sprague-Dawley rats; 0.1 mg/kg) [%],Contractility increase (left ventricular contractility) (Sprague-Dawley rats; 0.3 mg/kg) [%],Contractility increase (left ventricular contractility) (Sprague-Dawley rats; 1.0 mg/kg) [%]
"Cc1ccccc1C1CCc2cc(OC3CCC(NCc4c(C)nn(C)c4C)CC3)ccc2O1 (stereo not shown) [Example 177, 4-(2-o-Tolyl-chroman-6-yloxy)-N-(1,3,5-trimethylpyrazol-4-ylmethyl)-cyclohexylamine]",200,29,81,134
"Cc1ccccc1[C@@H]1CCc2cc(O[C@H]3CC[C@H](C(=O)NCCO)CC3)ccc2O1 [Example 268, trans-4-((S)-2-o-tolyl-chroman-6-yloxy)-cyclohexanecarboxylic acid (2-hydroxy-ethyl)-amide]",500,108,154,179
"NCC(=O)N[C@H]1CC[C@H](Oc2ccc3c(c2)CC[C@@H](c2ccccc2)O3)CC1 [Example 159, 2-Amino-N-[trans-4-((S)-2-phenyl-chroman-6-yloxy)-cyclohexyl]-acetamide]",2500,46,104,140
"Cc1ccccc1C1CCc2cc(OC3CCC(C(=O)NCc4ccno4)CC3)ccc2O1 (stereo not shown) [Example 158, N-(Isoxazol-5-ylmethyl)-4-(2-o-tolyl-chroman-6-yloxy)-cyclohexanecarboxamide]",2200,106,139,146
"O=C(N[C@H]1CC[C@H](Oc2ccc3c(c2)CCC(c2ccccc2)O3)CC1)[C@@H]1CCCN1 (stereo partly drawn) [Example 180, (S)—N-[trans-4-(2-Phenyl-chroman-6-yloxy)-cyclohexyl]-pyrrolidine-2-carboxamide]",10000,26,66,99
"Cc1ccccc1C1CCc2cc(O[C@H]3CC[C@H](N)CC3)ccc2O1.Cl (stereo partly drawn) [Example 156, trans-4-(2-o-Tolyl-chroman-6-yloxy)-cyclohexylamine]",1500,44,110,171
"Cc1ccccc1[C@@H]1CCc2cc(O[C@H]3CC[C@H](C(=O)NCCOP(=O)([O-])[O-])CC3)ccc2O1.[Na+].[Na+] [Example 303, Phosphoric acid mono-(2-{[trans-4-((S)-2-o-tolyl-chroman-6-yloxy)-cyclohexanecarbonyl]-amino}-ethyl) ester disodium salt]",2500,69,114,172
